Results on 2 compounds are retold here after patent publication US9416102B2, “(22E)-2-methylene-22-dehydro-1α,24,25-trihydroxy-19-nor-vitamin D3 analogs” (Wisconsin Alumni Research Foundation, priority 2013, dated 2016).

Molecules are shown by their SMILES.

Assay [1] addresses T1, Full-length recombinant rat receptor (vitamin D receptor, VDR) (Rattus norvegicus, UniProt P13053).
T1 construct: Full-length recombinant rat receptor was expressed in E. coli; histidine tag (C); made in house; host or cells: E. coli BL21(DE3) Codon Plus RIL
T1 sequence (P13053 1-423): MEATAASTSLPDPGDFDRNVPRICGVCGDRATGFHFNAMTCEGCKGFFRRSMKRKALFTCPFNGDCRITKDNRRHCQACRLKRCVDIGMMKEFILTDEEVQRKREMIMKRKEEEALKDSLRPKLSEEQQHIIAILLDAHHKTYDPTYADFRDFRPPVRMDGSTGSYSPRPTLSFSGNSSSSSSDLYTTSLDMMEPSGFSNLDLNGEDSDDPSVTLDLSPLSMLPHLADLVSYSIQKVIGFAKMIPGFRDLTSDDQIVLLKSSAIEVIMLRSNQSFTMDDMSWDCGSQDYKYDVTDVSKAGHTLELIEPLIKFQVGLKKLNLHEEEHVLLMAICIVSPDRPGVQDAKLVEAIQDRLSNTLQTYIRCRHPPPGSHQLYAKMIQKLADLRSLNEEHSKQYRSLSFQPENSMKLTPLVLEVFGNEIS
In words: Vitamin D receptor competitive binding. The conditions noted are these: relative to 1,25(OH)2D3, FIG. 1; for competition for binding to the VDR compared to the native hormone: in words. The text has this:
Vitamin D Receptor Binding
Full-length recombinant rat receptor was expressed in E. coli BL21(DE3) Codon Plus RIL cells and purified to homogeneity using two different column chromatography systems. The first system was a nickel affinity resin that utilizes the C-terminal histidine tag on this protein. The protein that was eluted from this resin was further purified using ion exchange chromatography (S-Sepharose Fast Flow). Aliquots of the purified protein were quick frozen in liquid nitrogen and stored at −80° C. until use. For use in binding assays, the protein was diluted in TEDK50 (50 mM Tris, 1.5 mM EDTA, pH 7.4, 5 mM DTT, 150 mM KCl) with 0.1% Chaps detergent. The receptor protein and ligand concentration was optimized such that no more than 20% of the added radiolabeled ligand was bound to the receptor.
Unlabeled ligands were dissolved in ethanol and the concentrations determined using UV spectrophotometry (1,25(OH)2D3: molar extinction coefficient=18,200 and 1max=265 nm; Analogs: molar extinction coefficient=42,000 and 1max=252 nm). Radiolabeled ligand (^3H-1,25(OH)2D3, ˜159 Ci/mmole) was added in ethanol at a final concentration of 1 nM.
Radiolabeled and unlabeled ligands were added to 100 mcl of the diluted protein at a final ethanol concentration of ≦10%, mixed and incubated overnight on ice to reach binding equilibrium. The following day, 100 mcl of hydroxylapatite slurry (50%) was added to each tube and mixed at 10-minute intervals for 30 minutes. The hydroxyapaptite was collected by centrifugation and then washed three times with Tris-EDTA buffer (50 mM Tris, 1.5 mM EDTA, pH 7.4) containing 0.5% Titron X-100. After the final wash, the pellets were transferred to scintillation vials containing 4 ml of Biosafe II scintillation cocktail, mixed and placed in a scintillation counter. Total binding was determined from the tubes containing only radiolabeled ligand.

In assay [2] the test system is 24-hydroxylase (24OHase) gene promoter. In words: In vitro transcription assay (luciferase reporter in ROS 17/2.8 cells). Type of assay: cell-based. The following applies: FIG. 3; for stimulation of gene transcription compared to the native hormone: in words. The method, then:
In Vitro Transcription Assay
Transcription activity was measured in ROS 17/2.8 (bone) cells that were stably transfected with a 24-hydroxylase (24OHase) gene promoter upstream of a luciferase reporter gene (Arbour et al., 1998). Cells were given a range of doses. Sixteen hours after dosing the cells were harvested and luciferase activities were measured using a luminometer. RLU=relative luciferase units.
For orientation: A reporter such as luciferase makes a cellular process visible.

Assay [3] deals with Human promyelocytic leukemia (HL-60) cells. In words: HL-60 differentiation (nitro blue tetrazolium reduction). The following applies: relative to 1,25(OH)2D3; FIG. 2. Type of assay: cell-based. As for the experimental part:
The study drugs were dissolved in ethanol and the concentrations determined using UV spectrophotometry. Serial dilutions were prepared so that a range of drug concentrations could be tested without changing the final concentration of ethanol (≦0.2%) present in the cell cultures.
Human promyelocytic leukemia (HL-60) cells were grown in RPMI-1640 medium containing 10% fetal bovine serum. The cells were incubated at 37° C. in the presence of 5% CO2.
HL-60 cells were plated at 1.2×10^5 cells/ml. Eighteen hours after plating, cells in duplicate were treated with drug. Four days later, the cells were harvested and a nitro blue tetrazolium reduction assay was performed (Collins et al., 1979; J. Exp. Med. 149:969-974). The percentage of differentiated cells was determined by counting a total of 200 cells and recording the number that contained intracellular black-blue formazan deposits. Verification of differentiation to monocytic cells was determined by measuring phagocytic activity (data not shown).

The test system of assay [4] is ovariectomized (OVX) Sprague-Dawley female rats. In words: Ovariectomized rat model, bone strength testing (3-point bending). Type of assay: in vivo. The conditions noted are these: 60 ng/kg body weight once daily for 17 weeks, FIG. 6. As for the experimental part:
Virgin Sprague-Dawley female rats were either sham-operated or ovariectomized (OVX) at 4 months of age by the vendor (Harlan). Starting at 16 weeks post-surgery, the animals were given vehicle or test analog (WT or 2MD) once daily for 17 weeks. Bone mineral density (BMD) and serum and urinary calcium levels were assessed periodically throughout the study. At termination, femurs were collected for bone strength testing (3-point bending, Numira Biosciences).

Regarding `C=C1[C@H](O)CC(=C/C=C2\CCC[C@]3(C)[C@@H]([C@H](C)/C=C/[C@@H](O)C(C)(C)O)CC[C@@H]23)C[C@H]1O` [WT-51, (22E)-(24R)-2-methylene-22-dehydro-1α,24,25-trihydroxy-19-nor-vitamin D3], in assay [1], the “competition for binding to the VDR compared to the native hormone” value was “one log less than the native hormone” and the “binding to the vitamin D receptor (VDR), times less active than the natural hormone” value was “approximately 10 ×”. The “stimulation of gene transcription compared to the native hormone” value in assay [2] was “nearly one log more potent than the native hormone”. Moreover, the “stimulating gene transcription from the 24OHase gene promoter, times more effective than the natural hormone” value in assay [2] (relative to 1,25(OH)2D3) is “approximately 10 ×”. For the same compound, in assay [3], the “promoting HL-60 cell differentiation, times more potent than the native hormone” value is “approximately 10 ×”. Moreover, the “bone strength compared to 2MD at 2.5 ng/kg body weight” value in assay [4] is on record as “improves bone strength in ovariectomized rats to the same degree as 2MD”.
Take `C=C1[C@H](O)CC(=C/C=C2\CCC[C@]3(C)[C@@H]([C@H](C)/C=C/[C@H](O)C(C)(C)O)CC[C@@H]23)C[C@H]1O` [WT-52, (22E)-(24S)-2-methylene-22-dehydro-1α,24,25-trihydroxy-19-nor-vitamin D3]: in assay [1], the “competition for binding to the VDR compared to the native hormone” value is given as “one log less than the native hormone” and the “binding to the vitamin D receptor (VDR), times less active than the natural hormone” value was “approximately 10 ×”. The “stimulation of gene transcription compared to the native hormone” value in assay [2] was “approximately the same activity as the native hormone”.
